Experiments:
[1] = Vacuum infusing boneless beef parts, organoleptic shelf life of the ground product; conditions: vacuum tumbled about 15 minutes at about -0.4 bar, stored at about 4° C., first failure of duplicates
Description: Samples of beef in an amount of about 1 pound were prepared from boneless beef parts. Each sample was provided in a vacuum container of a vacuum tumbler in the presence of the antimicrobial solution (peroxyacetic acid (“PAA”) or peroxylactic acid (“PLA”)) provided in Table 2, with the control subjected to the same volume of sterile water. The pressure was reduced in the vacuum tumbler to about −0.4 bar, and the contents were rotated in the vacuum-tumbler while under pressure for a period of time of about 15 minutes. Pressure was then returned to atmospheric pressure and the contents of the vacuum container were subjected to grinding and then stored in a sealed plastic bag at about 4° C. The ground product was evaluated daily for appearance and order until reaching failure by abnormal coloration and/or odor. The Control and each microbial concentration sample was performed in duplicate, with the first date of organoleptic failure for the duplicate samples reported in Table 1.

[2] = Vacuum infusing boneless poultry parts, organoleptic shelf life of the ground product; conditions: vacuum tumbled about 15 minutes at about -0.4 bar, stored at about 4° C., first failure of duplicates
Description: Samples of poultry in an amount of about 1 pound were prepared from boneless poultry parts. Each sample was provided in a vacuum container of a vacuum tumbler in the presence of the antimicrobial solution (peroxyacetic acid (“PAA”) or peroxylactic acid (“PLA”)) provided in Table 1, with the control subjected to the same volume of sterile water. The pressure was reduced in the vacuum tumbler to about −0.4 bar, and the contents were rotated in the vacuum-tumbler while under pressure for a period of time of about 15 minutes. Pressure was then returned to atmospheric pressure and the contents of the vacuum container were subjected to grinding and then stored in a sealed plastic bag at about 4° C. The ground product was evaluated daily for appearance and order until reaching failure by abnormal coloration and/or odor. The Control and each microbial concentration sample was performed in duplicate, with the first date of organoleptic failure for the duplicate samples reported in Table 1.

Molecule	Days to Organoleptic Failure ([1]; 100 ppm) [days]	Days to Organoleptic Failure ([1]; 250 ppm) [days]	Days to Organoleptic Failure ([1]; 500 ppm) [days]	Days to Organoleptic Failure ([1]; 1000 ppm) [days]	Days to Organoleptic Failure ([2]; 100 ppm) [days]	Days to Organoleptic Failure ([2]; 250 ppm) [days]	Days to Organoleptic Failure ([2]; 500 ppm) [days]	Days to Organoleptic Failure ([2]; 1000 ppm) [days]
CC(O)C(=O)OO (stereo not shown) [PLA, peroxylactic acid]	11	13	15	17	11	14	16	19
peroxyacetic acid [PAA]	11	13	15	17	11	13	17	19
